T/C data for 13 compounds are collected here from PubChem BioAssay AID334 (DTP/NCI, 2004).

Several values for one entry are separate records, joined by “and”; a condition that tells them apart may be missing. Identical values can stand only once. Inconclusive results and toxic doses are left out.

This assay has as its system CD2F1 mice, intracerebral P388 leukemia, median survival T/C%. Description: NCI In Vivo Anticancer Drug Screen. Data for tumor model P388 Leukemia (intracerebral) in CD2F1 (CDF1) mice. To be noted: endpoint: median survival time, higher = longer survival. The method, then: The antitumor activity of compounds was measured in mice bearing transplantable tumors. Survival or tumor size were measured and the results are expressed as the measurement made in the treated group (T) divided by the measurement made in the vehicle treated control group (C). The tumor model used in this assay is P388 Leukemia (intracerebral) in CD2F1 (CDF1) mice

The mark [1] stands for this setting: dose: 12.5 mg/kg/injection, schedule: Q01DX009 (ip), vehicle: saline with Tween-80.
The mark [2] stands for this setting: dose: 25.0 mg/kg/injection, schedule: Q01DX009 (ip), vehicle: saline with Tween-80.
[3] abbreviates: dose: 50.0 mg/kg/injection, schedule: Q01DX009 (ip), vehicle: saline with Tween-80.
[4] abbreviates: dose: 100.0 mg/kg/injection, schedule: Q01DX009 (ip), vehicle: saline with Tween-80.
[5] abbreviates: dose: 16.0 mg/kg/injection, schedule: Q01DX009 (ip), vehicle: saline with Tween-80.
Setting [6] is: dose: 32.0 mg/kg/injection, schedule: Q01DX009 (ip), vehicle: saline with Tween-80.
Setting [7] is: dose: 64.0 mg/kg/injection, schedule: Q01DX009 (ip), vehicle: saline with Tween-80.
The mark [8] stands for this setting: dose: 512.0 mg/kg/injection, schedule: Q01DX009 (ip), vehicle: saline with Tween-80.

Take `CN(C)c1nc(N(C)C)nc(N(C)C)n1`: the T/C by setting is: (dose: 100.0 mg/kg/injection, schedule: Q01DX005 (ip), vehicle: saline with Tween-80) 104 % of control; (dose: 100.0 mg/kg/injection, schedule: Q01DX005 (ip), vehicle: suspension in saline) 100 % of control; (dose: 200.0 mg/kg/injection, schedule: Q01DX005 (ip), vehicle: saline with Tween-80) 111 % of control; (dose: 200.0 mg/kg/injection, schedule: Q01DX005 (ip), vehicle: suspension in saline) 107 % of control; (dose: 400.0 mg/kg/injection, schedule: Q01DX005 (ip), vehicle: saline with Tween-80) 111 % of control; (dose: 400.0 mg/kg/injection, schedule: Q01DX005 (ip), vehicle: suspension in saline) 89 % of control.

Regarding `COc1ccc2c(c1)CCC(c1ccccc1)=C2c1ccc(OCCN2CCCC2)cc1`, the T/C is, setting by setting: (dose: 12.0 mg/kg/injection, schedule: Q01DX005 (ip), vehicle: Klucel (hydroxypropylcellulose) (HPC)) 104 % of control and 110 % of control; (dose: 24.0 mg/kg/injection, schedule: Q01DX005 (ip), vehicle: Klucel (hydroxypropylcellulose) (HPC)) 97 % of control and 102 % of control; (dose: 48.0 mg/kg/injection, schedule: Q01DX005 (ip), vehicle: Klucel (hydroxypropylcellulose) (HPC)) 104 % of control and 108 % of control; (dose: 96.0 mg/kg/injection, schedule: Q01DX005 (ip), vehicle: Klucel (hydroxypropylcellulose) (HPC)) 96 % of control.

With `CC1(CO)C(O)CCC2(C)C1CCC1CC3CC12CCC3(O)CO` (stereo not given), the T/C was 94 % of control under setting [1]; 113 % of control under setting [2]; 100 % of control under setting [3]; 94 % of control under setting [4]; 96 % of control (dose: 200.0 mg/kg/injection, schedule: Q01DX009 (ip), vehicle: saline with Tween-80).

With `O=C1c2c(O)ccc(O)c2C(=O)c2c(NCCNCCO)ccc(NCCNCCO)c21`, the T/C is, setting by setting: (dose: 0.5 mg/kg/injection, schedule: Q01DX009 (ip), vehicle: saline with Tween-80) 100 % of control; (dose: 1.0 mg/kg/injection, schedule: Q01DX009 (ip), vehicle: saline with Tween-80) 105 % of control; (dose: 2.0 mg/kg/injection, schedule: Q01DX009 (ip), vehicle: saline with Tween-80) 106 % of control.

As to `CN=S(=O)(OCCCCCOS(=O)(=NC)c1ccccc1)c1ccccc1` (stereo not given), the T/C is, setting by setting: (dose: 6.25 mg/kg/injection, schedule: Q01DX009 (ip), vehicle: saline with Tween-80) 107 % of control; under setting [1], 100 % of control; under setting [2], 101 % of control; under setting [3], 102 % of control; under setting [4], 102 % of control.

For `CCN(CC)c1ccc2cc3ccc(=[N+](CC)CC)cc-3oc2c1`, the T/C (dose: 4.0 mg/kg/injection, schedule: Q01DX005 (ip), vehicle: suspension in saline) is 102 % of control and the T/C (dose: 8.0 mg/kg/injection, schedule: Q01DX005 (ip), vehicle: suspension in saline) is 103 % of control.

As to `O=C1C=C(N2CC2)C(=O)C=C1N1CC1`, the T/C by setting is: (dose: 0.12 mg/kg/injection, schedule: Q01DX009 (ip), vehicle: saline) 104 % of control and 105 % of control and 106 % of control; (dose: 0.25 mg/kg/injection, schedule: Q01DX009 (ip), vehicle: saline) 100 % of control and 101 % of control and 105 % of control; (dose: 0.5 mg/kg/injection, schedule: Q01DX009 (ip), vehicle: saline) 105 % of control and 107 % of control and 111 % of control; (dose: 1.0 mg/kg/injection, schedule: Q01DX009 (ip), vehicle: saline) 92 % of control and 93 % of control and 100 % of control.

In the case of `COc1ccc2c(c1OC(C)=O)-c1cc(OC(C)=O)cc3c1C(C2)N(C(=O)CN(CCCl)CCCl)CC3` (stereo not given), the T/C is, setting by setting: (dose: 1.5 mg/kg/injection, schedule: Q01DX009 (ip), vehicle: DMSO) 104 % of control; (dose: 3.0 mg/kg/injection, schedule: Q01DX009 (ip), vehicle: DMSO) 101 % of control; (dose: 6.0 mg/kg/injection, schedule: Q01DX009 (ip), vehicle: DMSO) 100 % of control; (dose: 12.0 mg/kg/injection, schedule: Q01DX009 (ip), vehicle: DMSO) 88 % of control.

With `Nc1nncs1`, the T/C (dose: 64.0 mg/kg/injection, schedule: Q01DX005 (ip), vehicle: saline with Tween-80) is 119 % of control; the T/C (dose: 128.0 mg/kg/injection, schedule: Q01DX005 (ip), vehicle: saline with Tween-80) was 160 % of control and 169 % of control; the T/C (dose: 256.0 mg/kg/injection, schedule: Q01DX005 (ip), vehicle: saline with Tween-80) was 180 % of control.

For the compound `C#C[C@]1(O)CC[C@H]2[C@@H]3CCc4cc(O)ccc4[C@H]3CC[C@@]21C`, the T/C by setting is: (dose: 8.0 mg/kg/injection, schedule: Q01DX009 (ip), vehicle: Klucel (hydroxypropylcellulose) (HPC)) 90 % of control and 100 % of control; (dose: 16.0 mg/kg/injection, schedule: Q01DX009 (ip), vehicle: Klucel (hydroxypropylcellulose) (HPC)) 94 % of control and 104 % of control; under setting [5], 95 % of control; (dose: 32.0 mg/kg/injection, schedule: Q01DX009 (ip), vehicle: Klucel (hydroxypropylcellulose) (HPC)) 100 % of control and 101 % of control; under setting [6], 100 % of control; (dose: 64.0 mg/kg/injection, schedule: Q01DX009 (ip), vehicle: Klucel (hydroxypropylcellulose) (HPC)) 94 % of control and 100 % of control. For the same compound, the T/C is 95 % of control under setting [7]; 99 % of control and 102 % of control (dose: 128.0 mg/kg/injection, schedule: Q01DX009 (ip), vehicle: Klucel (hydroxypropylcellulose) (HPC)); 95 % of control and 100 % of control (dose: 256.0 mg/kg/injection, schedule: Q01DX009 (ip), vehicle: Klucel (hydroxypropylcellulose) (HPC)); 86 % of control and 99 % of control (dose: 512.0 mg/kg/injection, schedule: Q01DX009 (ip), vehicle: Klucel (hydroxypropylcellulose) (HPC)); 103 % of control under setting [8].

Consider `CC/C(=C(/CC)c1ccc(O)cc1)c1ccc(O)cc1`, for which the T/C by setting is: (dose: 8.0 mg/kg/injection, schedule: Q01DX009 (ip), vehicle: saline with Tween-80) 105 % of control; (dose: 8.0 mg/kg/injection, schedule: Q01DX009 (ip), vehicle: saline) 104 % of control; under setting [5], 106 % of control; (dose: 16.0 mg/kg/injection, schedule: Q01DX009 (ip), vehicle: saline) 107 % of control; under setting [6], 107 % of control; (dose: 32.0 mg/kg/injection, schedule: Q01DX009 (ip), vehicle: saline) 158 % of control. Besides, the T/C is, setting by setting: under setting [7], 100 % of control; (dose: 64.0 mg/kg/injection, schedule: Q01DX009 (ip), vehicle: saline) 116 % of control; (dose: 128.0 mg/kg/injection, schedule: Q01DX009 (ip), vehicle: saline with Tween-80) 115 % of control; (dose: 128.0 mg/kg/injection, schedule: Q01DX009 (ip), vehicle: saline) 90 % of control; (dose: 256.0 mg/kg/injection, schedule: Q01DX009 (ip), vehicle: saline with Tween-80) 106 % of control; (dose: 256.0 mg/kg/injection, schedule: Q01DX009 (ip), vehicle: saline) 88 % of control. In addition, the T/C under setting [8] is 86 % of control.

For the compound `CCC1=C(c2ccc(OC)cc2)CCC(C(=O)O)C1C` (stereo not given), the T/C reads like this: (dose: 4.0 mg/kg/injection, schedule: Q01DX005 (ip), vehicle: saline) 99 % of control and 104 % of control; (dose: 8.0 mg/kg/injection, schedule: Q01DX005 (ip), vehicle: saline) 95 % of control and 100 % of control; (dose: 16.0 mg/kg/injection, schedule: Q01DX005 (ip), vehicle: saline) 90 % of control and 98 % of control; (dose: 32.0 mg/kg/injection, schedule: Q01DX005 (ip), vehicle: saline) 96 % of control and 102 % of control.

As for `NC(=O)c1csc(C2OC(CO)C(O)C2O)n1` (stereo not given), the T/C (dose: 12.5 mg/kg/injection, schedule: Q01DX009 (ip), vehicle: saline) is 105 % of control; the T/C (dose: 25.0 mg/kg/injection, schedule: Q01DX009 (ip), vehicle: saline) is 121 % of control; the T/C (dose: 50.0 mg/kg/injection, schedule: Q01DX009 (ip), vehicle: saline) is 110 % of control; the T/C (dose: 100.0 mg/kg/injection, schedule: Q01DX009 (ip), vehicle: saline) was 119 % of control; the T/C (dose: 200.0 mg/kg/injection, schedule: Q01DX009 (ip), vehicle: saline) is 121 % of control; the T/C (dose: 800.0 mg/kg/injection, schedule: Q01DX009 (ip), vehicle: saline) was 93 % of control.
